22 compounds from ChEMBL document CHEMBL5236632, “Membrane-Active Nonivamide Derivatives as Effective Broad-Spectrum Antimicrobials: Rational Design, Synthesis, and Biological Evaluation” (J Med Chem, 2022) can be followed below.

For data set [1], the system named is Staphylococcus aureus. As to the kind of experiment: Antibacterial activity against Staphylococcus aureus ATCC 29213 assessed as inhibition of visible growth measured after 18 to 24 hrs by broth dilution method. It is filed as functional. The note with it: time 18-24 hrs. Background: Dilution methods test growth across graded concentrations, often in twofold steps.

Data set [2] deals with Staphylococcus aureus. As to the kind of experiment: Antibacterial activity against methicillin-resistant Staphylococcus aureus NCTC 10442 assessed as inhibition of visible growth measured after 18 to 24 hrs by broth dilution method. It is filed as functional. To be noted: time 18-24 hrs.
Data set [3] is described as follows: Haemolytic activity in rabbit red blood cells incubated for 60 mins by k multi-mode reader relative to control. In kind it is toxicity, cell-based, Oryctolagus cuniculus, Erythrocyte. The note with it: rabbit red blood cells.
The test system of data set [4] is Staphylococcus aureus. As to the kind of experiment: Antibacterial activity against methicillin-resistant Staphylococcus aureus N315 assessed as inhibition of visible growth measured after 18 to 24 hrs by broth dilution method. The note with it: time 18-24 hrs. It is filed as functional.
In data set [5] the test system is Escherichia coli. As to the kind of experiment: Antibacterial activity against Escherichia coli ATCC 25922 assessed as inhibition of visible growth measured after 18 to 24 hrs by broth dilution method. To be noted: time 18-24 hrs. In kind it is functional.
The nature of data set [6]: Selectivity ratio, HC50 for hemolytic activity in rabbit RBC to MIC for antibacterial activity against methicillin-resistant Staphylococcus aureus N315. To be noted: rabbit red blood cells. In kind it is toxicity.
The nature of data set [7]: Selectivity ratio, HC50 for hemolytic activity in rabbit RBC to MIC for antibacterial activity against Staphylococcus aureus ATCC 29213. The note with it: rabbit red blood cells. In kind it is toxicity.
Data set [8] is described as follows: Selectivity ratio, HC50 for hemolytic activity in rabbit RBC to MIC for antibacterial activity against methicillin-resistant Staphylococcus aureus NCTC 10442. The note with it: rabbit red blood cells. In kind it is toxicity.

≈ marks a conversion by molar mass, not a printed value.

In general, MIC refers to the lowest concentration that inhibits growth of the organism. Broadly, the HC50 is the concentration that lyses half of the red blood cells. Higher therefore signals weaker haemolysis.

As for `CCCCCCCCC(=O)NCc1ccc(OCCCCNCC)c(OC)c1`, the MIC in data set [1], in data set [2], in data set [4] and in data set [5] was > 50 µg/mL in each case. For the same compound, the concentration for 50% haemolysis (HC50) at 1 h in data set [3] was > 200 µg/mL.
In the case of `CCCCCCCCC(=O)NCc1ccc(OCCCCCCN)c(OC)c1`, the MIC in data set [1], in data set [2], in data set [4] and in data set [5] was > 50 µg/mL in each case. Moreover, the HC50 at 1 h in data set [3] is > 200 µg/mL.
For the compound `CCCCCCCCC(=O)NCc1ccc(OCCNC(=N)N)c(OC)c1`, the minimal inhibitory concentration (MIC) was 50 µg/mL (≈ 132 µM) in data set [1], 25 µg/mL (≈ 66 µM) in data set [2], 25 µg/mL (≈ 66 µM) in data set [4] and > 50 µg/mL in data set [5]. Further, in data set [3], the 50% haemolytic concentration (HC50) at 1 h is > 200 µg/mL. For the same compound, the selectivity ratio in data set [6], in data set [7] and in data set [8] was > 4 in each case.
Consider `CCCCCCCCC(=O)NCc1ccc(OCCCCN)c(OC)c1`, for which the minimal inhibitory concentration (MIC) in data set [1], in data set [2], in data set [4] and in data set [5] was > 50 µg/mL in each case. Moreover, the HC50 at 1 h in data set [3] is > 200 µg/mL.
Regarding `CCCCCCCCC(=O)NCc1ccc(OCCCCCCCCCCNC(=N)N)c(OC)c1`, the MIC in data set [1] is 6.25 µg/mL (≈ 12.7 µM); in data set [2], 6.25 µg/mL (≈ 12.7 µM); in data set [4], 6.25 µg/mL (≈ 12.7 µM); in data set [5], > 50 µg/mL. In addition, the concentration for 50% haemolysis (HC50) at 1 h in data set [3] was > 200 µg/mL. Moreover, the selectivity ratio in data set [6], in data set [7] and in data set [8] was > 32 each time.
As to `CCCCCCCCC(=O)NCc1ccc(OCC(=O)N[C@@H](CCCNC(=N)N)C(=O)N[C@@H](CCCNC(=N)N)C(=O)N[C@@H](CCCNC(=N)N)C(=O)OC)c(OC)c1`, the MIC in data set [1] is > 50 µg/mL; in data set [2], 50 µg/mL (≈ 59.9 µM); in data set [4] it was > 50 µg/mL; in data set [5] it was > 50 µg/mL. In data set [3], the HC50 at 1 h is > 200 µg/mL.
Turning to `COc1cc(CNC(=O)CCCC/C=C/C(C)C)ccc1OCCCCNC(=N)N`, the MIC in data set [1] is 3.12 µg/mL (≈ 7.47 µM); in data set [2] it was 3.12 µg/mL (≈ 7.47 µM); in data set [4] it was 6.25 µg/mL (≈ 14.9 µM); in data set [5] it was 50 µg/mL (≈ 119 µM). Also, the HC50 at 1 h in data set [3] is > 200 µg/mL. In addition, the selectivity ratio in data set [6], in data set [7] and in data set [8] was > 32 each time.
Turning to `CCCCCCCCC(=O)NCc1ccc(OCCCCCCNCCN(CCN)CCN)c(OC)c1`, the minimum inhibitory concentration (MIC) in data set [1] was 3.12 µg/mL (≈ 5.99 µM); in data set [2], 3.12 µg/mL (≈ 5.99 µM); in data set [4], 3.12 µg/mL (≈ 5.99 µM); in data set [5], > 50 µg/mL. In data set [3], the HC50 at 1 h is > 200 µg/mL. Besides, the selectivity ratio in data set [6], in data set [7] and in data set [8] was > 64 throughout.
As for `CCN(CC)CCCCOc1ccc(CNC(=O)CCCC/C=C/C(C)C)cc1OC`, the minimum inhibitory concentration (MIC) in data set [1], in data set [2], in data set [4] and in data set [5] was > 50 µg/mL each time. For the same compound, the concentration for 50% haemolysis (HC50) at 1 h in data set [3] was > 200 µg/mL.
With `CCCCCCCCC(=O)NCc1ccc(OCCCCCCCCCCCCNC(=N)N)c(OC)c1`, the minimal inhibitory concentration (MIC) in data set [1] was > 50 µg/mL; in data set [2], 25 µg/mL (≈ 48.2 µM); in data set [4], 25 µg/mL (≈ 48.2 µM); in data set [5], > 50 µg/mL. Moreover, the concentration for 50% haemolysis (HC50) at 1 h in data set [3] was > 200 µg/mL.
As for `CCCCCCCCC(=O)NCc1ccc(OCCCCNC(=N)N)c(OC)c1`, the MIC is 12.5 µg/mL (≈ 30.7 µM) in data set [1], 6.25 µg/mL (≈ 15.4 µM) in data set [2], 6.25 µg/mL (≈ 15.4 µM) in data set [4] and > 50 µg/mL in data set [5]. Besides, in data set [3], the concentration for 50% haemolysis (HC50) at 1 h was > 200 µg/mL. Besides, the selectivity ratio in data set [6], in data set [7] and in data set [8] was > 16 throughout.
`CCCCCCCCC(=O)NCc1ccc(OCCCCCCNC(=N)N)c(OC)c1`: the MIC in data set [1] was 3.12 µg/mL (≈ 7.19 µM); in data set [2], 1.56 µg/mL (≈ 3.59 µM); in data set [4], 3.12 µg/mL (≈ 7.19 µM); in data set [5], > 50 µg/mL. Also, in data set [3], the 50% haemolytic concentration (HC50) at 1 h is > 200 µg/mL. For the same compound, the selectivity ratio in data set [6], in data set [7] and in data set [8] was > 64 each time.
For the compound `CCCCCCCCC(=O)NCc1ccc(OCCCNC(=N)N)c(OC)c1`, the minimum inhibitory concentration (MIC) in data set [1] was 25 µg/mL (≈ 63.7 µM); in data set [2], 12.5 µg/mL (≈ 31.8 µM); in data set [4] it was 12.5 µg/mL (≈ 31.8 µM); in data set [5] it was > 50 µg/mL. For the same compound, the HC50 at 1 h in data set [3] is > 200 µg/mL. Also, the selectivity ratio in data set [6], in data set [7] and in data set [8] was > 8 each time.
For `CCCCCCCCC(=O)NCc1ccc(OCCCCCNC(=N)N)c(OC)c1`, the MIC came to 6.25 µg/mL (≈ 14.9 µM) in data set [1], 6.25 µg/mL (≈ 14.9 µM) in data set [2], 6.25 µg/mL (≈ 14.9 µM) in data set [4] and 50 µg/mL (≈ 119 µM) in data set [5]. Further, the 50% haemolytic concentration (HC50) at 1 h in data set [3] was > 200 µg/mL. The selectivity ratio in data set [6], in data set [7] and in data set [8] was > 32 in each case.
As to `CCCCCCCCC(=O)NCc1ccc(O)c(O)c1`, the minimum inhibitory concentration (MIC) in data set [1], in data set [2], in data set [4] and in data set [5] was > 50 µg/mL each time. Besides, the HC50 at 1 h in data set [3] is > 200 µg/mL.
Take `CCCCCCCCC(=O)NCc1ccc(OCCCCCCCCNC(=N)N)c(OC)c1`: the MIC in data set [1] was 1.56 µg/mL (≈ 3.37 µM); in data set [2] it was 1.56 µg/mL (≈ 3.37 µM); in data set [4], 1.56 µg/mL (≈ 3.37 µM); in data set [5] it was > 50 µg/mL. Moreover, the concentration for 50% haemolysis (HC50) at 1 h in data set [3] was > 200 µg/mL. The selectivity ratio in data set [6], in data set [7] and in data set [8] was > 128 in each case.
With `CCCCCCCCC(=O)NCc1ccc(OCC(=O)N[C@@H](CCCNC(=N)N)C(=O)OC)c(OC)c1`, the MIC in data set [1] is 25 µg/mL (≈ 47.9 µM); in data set [2] it was 25 µg/mL (≈ 47.9 µM); in data set [4] it was 50 µg/mL (≈ 95.8 µM); in data set [5] it was > 50 µg/mL. In data set [3], the concentration for 50% haemolysis (HC50) at 1 h is > 200 µg/mL. Further, the selectivity ratio in data set [6], in data set [7] and in data set [8] was > 4 in each case.
As for `CCCCCCCCC(=O)NCc1ccc(OCCCCN(CC)CC)c(OC)c1`, the MIC in data set [1], in data set [2], in data set [4] and in data set [5] was > 50 µg/mL throughout. The 50% haemolytic concentration (HC50) at 1 h in data set [3] was > 200 µg/mL.
As for `CCCCCCCCC(=O)NCc1ccc(OCCCCNC(=N)N)c(OCCCCNC(=N)N)c1`, the minimal inhibitory concentration (MIC) in data set [1] was determined as 6.25 µg/mL (≈ 12.4 µM); in data set [2] it was 3.12 µg/mL (≈ 6.18 µM); in data set [4], 3.12 µg/mL (≈ 6.18 µM); in data set [5], 50 µg/mL (≈ 98.9 µM). For the same compound, the concentration for 50% haemolysis (HC50) at 1 h in data set [3] is > 200 µg/mL. Also, the selectivity ratio in data set [6], in data set [7] and in data set [8] was > 32 in each case.
Take `COc1cc(CNC(=O)CCCC/C=C/C(C)C)ccc1OCCCCCCNCCN(CCNC(=N)N)CCNC(=N)N`: the MIC in data set [1] came out at 6.25 µg/mL (≈ 10.1 µM); in data set [2], 3.12 µg/mL (≈ 5.06 µM); in data set [4], 3.12 µg/mL (≈ 5.06 µM); in data set [5] it was 50 µg/mL (≈ 80.9 µM). Moreover, the HC50 at 1 h in data set [3] was > 200 µg/mL. Further, the selectivity ratio in data set [6], in data set [7] and in data set [8] was > 32 throughout.
Regarding `CCCCCCCCC(=O)NCc1ccc(OCCCCN(CCCN(C)C)CCCN(C)C)c(OC)c1`, the MIC in data set [1], in data set [2], in data set [4] and in data set [5] was > 50 µg/mL in each case. Moreover, the 50% haemolytic concentration (HC50) at 1 h in data set [3] was > 200 µg/mL.
Consider `COc1cc(CNC(=O)CCCC/C=C/C(C)C)ccc1OCCCCCCN`, for which the MIC in data set [1], in data set [2], in data set [4] and in data set [5] was > 50 µg/mL in each case. The concentration for 50% haemolysis (HC50) at 1 h in data set [3] was > 200 µg/mL.
